Source: EP4737445A1, “NOVEL SATURATED HETEROCYCLE-SUBSTITUTED HETEROARYL-CARBONOHYDRAZONOYL DICYANIDE COMPOUND AND USE THEREOF” (Korea Institute of Science and Technology, priority 2023, dated 2025)
pIC50: −log10 of the molar value. Where two headings read alike, the source gives them in different places.

Columns and labels:
Type in all cases: cell-based
TDP-43 BiFC cells = experiment: Cell viability (stained nuclei count) in TDP-43-BiFC cells; conditions: Forskolin-only group = 100%
Procedure: (§1) To screen for new TDP-43 aggregation inhibitors, a TDP-43-BiFC cell model that facilitates observation of TDP-43 aggregate formation in living cells was used. Specifically, TDP-43-BiFC cells were dispensed into a 384-well plate, and the next day, the compounds prepared according to Examples 1 to 46 were treated at concentrations of 3 and 10 µM, respectively, together with Forskolin (treatment concentration 30 µM), which is a compound that induces TDP-43 aggregation by activating the phosphorylation enzyme PKA. After 48 hours, nuclei within cells were stained using Hoechst (treatment concentration 1 µg/mL), and BiFC fluorescence intensity was automatically quantified using Operetta (PerkinElmer) to count the stained nuclei in each well from the entire plate. The group treated only with Forskolin, which induces TDP-43 aggregation, was set as the reference point with 100% TDP-43 aggregation state, and the effect was confirmed by the formula "(BiFC fluorescence intensity by the compounds synthesized according to the Examples of the disclosure - fluorescence intensity of the untreated control group)/(fluorescence intensity of the control group treated only with Forskolin that induces TDP-43 aggregation - fluorescence intensity of the untreated control group) × 100". In addition, the degree of cytotoxicity induced by the newly synthesized compounds was also calculated using the formula "(number of stained nuclei in the compound-treated group/number of stained nuclei in the Forskolin-treated group) × 100", with the group treated only with Forskolin as the reference point at 100% viability. From the treatment results, substances that inhibit intracellular TDP-43 aggregation were identified through screening from a series of candidates based on the criteria of 80% or more TDP-43 aggregation inhibition and 60% cell viability at a compound treatment concentration of 3 µM.
(§2) Furthermore, to confirm the TDP-43 aggregation inhibitory effect according to the concentration of the compounds screened in Experimental Example 3, the screened compounds were treated to […] at concentrations of 0.003, 0.01, 0.03, 0.1, 0.3, 1, 3, and 10 µM, respectively, together with Forskolin (treatment concentration 30 µM), which is a TDP-43 aggregation-inducing substance. After 48 hours, cell images were examined to analyze the TDP-43 aggregation reaction and degree of cytotoxicity. The IC50 and toxicity of the compounds were analyzed by nonlinear regression analysis using Prism software (GraphPad). The calculated results for representative compounds are shown in Table 4 below: TDP-43 protein aggregation inhibitory effect and cell viability of novel compounds.

Tau-BiFC cells = experiment: Cell viability (stained nuclei count) in Tau-BiFC cells
Procedure: (§3) To screen for new tau aggregation inhibitors, a Tau-BiFC cell model that facilitates observation of tau oligomer formation in living cells was used. Tau-BiFC cells were dispensed into a 384-well plate, and the next day, the compounds prepared according to Examples 1 to 46 were treated at concentrations of 1, 3, and 10 µM, respectively, together with Forskolin (treatment concentration 30 µM), which is a compound that induces tau aggregation by activating the tau phosphorylation enzyme PKA. After 48 hours, nuclei within cells were stained using Hoechst (treatment concentration 2 µg/mL), and BiFC fluorescence intensity was automatically quantified using Operetta (Perkin Elmer) to count the stained nuclei in each well from the entire plate. The group treated only with Forskolin, which induces tau aggregation, was set as the reference point with 100% tau aggregation state, and the effect was confirmed by the formula "BiFC fluorescence intensity by the compounds synthesized according to the Examples of the disclosure/(fluorescence intensity of the control group treated only with Forskolin that induces tau aggregation - fluorescence intensity of the untreated control group) × 100". In addition, the degree of cytotoxicity induced by the newly synthesized compounds was also calculated using the formula "(number of stained nuclei in the compound-treated group/number of stained nuclei in the Forskolin-treated group) × 100", with the group treated only with Forskolin as the reference point at 100% viability. From the treatment results, substances that inhibit intracellular tau aggregation were identified through screening from a series of candidates based on the criteria of 70% or more tau aggregation inhibition and 100% cell viability at a compound treatment concentration of 10 µM.
(§4) To confirm the tau aggregation inhibitory effect according to the concentration of the compounds screened in Experimental Example 1, the screened compounds were treated to Tau-BiFC cells at concentrations of 0.03, 0.1, 0.3, 1, 3, 10, and 30 µM, respectively, together with Forskolin (treatment concentration 30 µM), which is a tau aggregation-inducing substance. After 48 hours, cell images were examined to analyze the tau aggregation reaction and degree of cytotoxicity. The IC50 and toxicity of the compounds were analyzed by nonlinear regression analysis using Prism software (GraphPad). The calculated results for representative compounds are shown in Table 3 below: Tau aggregation inhibitory effect and cell viability of novel compounds.

TDP-43 protein = target: T1, TDP-43 protein (Homo sapiens, UniProt Q13148); experiment: TDP-43 aggregation inhibition in TDP-43-BiFC cell model (Forskolin-induced); conditions: for inhibition at 3 µM: read-out: TDP-43 protein aggregation inhibitory effect: Aggregation inhibitory effect (%) (@3 uM)
T1 construct: BiFC fluorescent-protein fragments (two complementary halves); expressed in transfected cells
Procedure: as §1, §2

Tau = target: T2, Tau (Homo sapiens, UniProt P10636); experiment: Tau aggregation inhibition in Tau-BiFC cell model (Forskolin-induced)
T2 construct: BiFC fluorescent-protein fragments (two complementary halves on two tau copies); expressed in transfected cells
Procedure: as §3, §4

[1] = @10 µM, Tau-BiFC cell line, Forskolin-only group = 100%
[2] = @3 uM, TDP-43 BiFC cells, Forskolin 30 µM, 48 hours
[3] = Tau-BiFC cell line, Forskolin 30 µM, 48 hours, 0.03-30 µM, read-out: Tau aggregation inhibitory effect IC50

T2 sequence (P10636 1-441 isoform P10636-8): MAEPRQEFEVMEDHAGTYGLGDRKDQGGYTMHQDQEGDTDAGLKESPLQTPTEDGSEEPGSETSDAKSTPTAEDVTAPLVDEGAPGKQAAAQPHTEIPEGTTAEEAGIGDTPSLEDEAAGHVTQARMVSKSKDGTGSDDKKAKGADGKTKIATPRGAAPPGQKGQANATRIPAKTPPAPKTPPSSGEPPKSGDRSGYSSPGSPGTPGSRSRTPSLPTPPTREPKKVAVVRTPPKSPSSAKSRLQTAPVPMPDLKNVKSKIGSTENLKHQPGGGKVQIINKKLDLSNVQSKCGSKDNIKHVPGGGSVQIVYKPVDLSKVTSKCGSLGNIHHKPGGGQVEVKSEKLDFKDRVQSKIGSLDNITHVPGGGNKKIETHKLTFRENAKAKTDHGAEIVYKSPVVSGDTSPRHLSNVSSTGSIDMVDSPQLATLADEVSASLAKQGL
T1 sequence (Q13148 whole entry, the tested form may be a part): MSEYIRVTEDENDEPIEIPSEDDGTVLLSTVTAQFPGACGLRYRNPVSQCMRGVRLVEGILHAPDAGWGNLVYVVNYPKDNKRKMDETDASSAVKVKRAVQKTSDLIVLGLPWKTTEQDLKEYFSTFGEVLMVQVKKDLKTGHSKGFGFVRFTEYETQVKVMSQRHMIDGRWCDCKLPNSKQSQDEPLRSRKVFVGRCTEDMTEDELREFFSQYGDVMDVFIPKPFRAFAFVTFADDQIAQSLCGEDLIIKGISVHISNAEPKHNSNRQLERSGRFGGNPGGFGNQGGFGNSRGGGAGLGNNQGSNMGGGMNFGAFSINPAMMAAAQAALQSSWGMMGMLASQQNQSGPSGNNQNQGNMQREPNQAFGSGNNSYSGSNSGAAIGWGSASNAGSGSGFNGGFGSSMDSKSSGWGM

| Compound | Cell viability (%) (@ 3 uM) (TDP-43 BiFC cells) | Cell viability (% @10µM) (Tau-BiFC cells; [1]) | pIC50 (TDP-43 protein) | inhibition at 3 µM (TDP-43 protein) | pIC50 (Tau) | Cell viability (% @10µM) (Tau-BiFC cells; 48 h, 10 µM) | inhibition at 3 µM (TDP-43 protein; [2]) | pIC50 (Tau; [3]) | pIC50 (Tau; read-out: Tau aggregation inhibitory effect IC50, Tau-BiFC cell line, Forskolin 30 µM, 48 hours, 0.03-30 µM) |
| --- | --- | --- | --- | --- | --- | --- | --- | --- | --- |
| CC(=O)N(N=C(C#N)C#N)c1ccc2nc(N3CCOCC3)sc2c1 [Compound 37, acetyl(2-morpholinobenzo[d]thiazol-6-yl)carbonohydrazonoyl dicyanide] | 61.3% | 85% | 9.15 | 91.2% | 7.62 | – | – | – | – |
| C[C@@H]1CN(c2nc3ccc(NN=C(C#N)C#N)cc3s2)C[C@H](C)N1C(=O)OC(C)(C)C [Compound 29, (2R,6S)-tert-butyl 4-(6-(2-(dicyanomethylene)hydrazinyl)benzo[d]thiazol-2-yl)-2,6-dimethylpiperazine-1-carboxylate] | 96.2% | – | – | – | – | 97% | 47.2% | 7.44 | – |
| N#CC(C#N)=NNc1ccc2nc(N3CCCC(F)C3)oc2c1 (stereo not shown) [Compound 44, (2-(3-fluoropiperidin-1-yl)benzo[d]oxazol-6-yl)carbonohydrazonoyl dicyanide] | 85.0% | 100% | – | 71.1% | 7.92 | – | – | – | – |
| N#CC(C#N)=NNc1cc2oc(N3CCOCC3)nc2cc1Cl [Compound 19, (5-chloro-2-morpholinobenzo[d]oxazol-6-yl)carbonohydrazonoyl dicyanide] | 97.0% | 100% | – | 92.6% | 6.34 | – | – | – | – |
| N#CC(C#N)=NNc1ccc2nc(N3CCCCC3)oc2c1 [Compound 46, (2-(piperidin-1-yl)benzo[d]oxazol-6-yl)carbonohydrazonoyl dicyanide] | 73.6% | 100% | 6.49 | 81.4% | 7.80 | – | – | – | – |
| N#CC(C#N)=NNc1ccc2nc(N3CCC[C@@H](F)C3)oc2c1 [Compound 47, (R)-N-(2-(3-fluoropiperidin-1-yl)benzo[d]oxazol-6-yl)carbonohydrazonoyl dicyanide] | – | 100% | – | – | 6.93 | – | – | – | – |
| CN(N=C(C#N)C#N)c1ccc2nc(N3C4CCC3COC4)sc2c1 [Compound 36, (2-(3-oxa-8-azabicyclo[3.2.1]octan-8-yl)benzo[d]thiazol-6-yl)(methyl)carbonohydrazonoyl dicyanide] | – | 97% | – | – | 6.87 | – | – | – | – |
| N#CC(C#N)=NNc1ccc2nc(N3CCCC3)oc2c1 [Compound 45, (2-(pyrrolidin-1-yl)benzo[d]oxazol-6-yl)carbonohydrazonoyl dicyanide] | 73.6% | 98% | 6.43 | 81.1% | 8.40 | – | – | – | – |
| N#CC(C#N)=NNc1ccc2nc(N3CCC[C@H](F)C3)oc2c1 [Compound 42, (S)-(2-(3-fluoropiperidin-1-yl)benzo[d]oxazol-6-yl)carbonohydrazonoyl dicyanide] | 62.4% | 100% | – | 64.7% | 7.70 | – | – | – | – |
| CN(C)c1ccc(-c2nc3ccc(NN=C(C#N)C#N)cc3s2)cc1 [Comparative compound 4, N-(2-(4-(dimethylamino)phenyl)benzo[d]thiazol-6-yl) carbonohydrazonoyl dicyanide, reference compound] | – | 80% | – | – | – | – | – | 5.51 | – |
| CC(C)(C)OC(=O)N1CCN(c2nc3ccc(NN=C(C#N)C#N)cc3s2)CC1 [Compound 22, tert-butyl 4-(6-(2-(dicyanomethylene)hydrazinyl)benzo[d]thiazol-2-yl)piperazine-1-carboxylate] | 130.7% | – | – | – | – | – | 66.5% | – | – |
| N#CC(C#N)=NNc1ccc2nc(-c3cccs3)sc2c1 [Comparative compound 5, N-(2-(thiophen-2-yl)benzo[d]thiazol-6-yl) carbonohydrazonoyl dicyanide, reference compound] | – | 70% | – | – | 5.14 | – | – | – | – |
| N#CC(C#N)=NNc1ccc2nc(-c3ccc(F)cc3)sc2c1 [Comparative compound 3, N-(2-(4-fluorophenyl)benzo[d]thiazol-6-yl) carbonohydrazonoyl dicyanide, reference compound] | – | 50% | – | – | 5.49 | – | – | – | – |
| N#CC(C#N)=NNc1ccc2nc(N3CC[C@H](F)C3)oc2c1 [Compound 43, (S)-(2-(3-fluoropyrrolidin-1-yl)benzo[d]oxazol-6-yl)carbonohydrazonoyl dicyanide] | 89.0% | 100% | – | 92.9% | – | – | – | – | 7.55 |
| N#CC(C#N)=NNc1ccc2nc(-c3ccccc3)sc2c1 [Comparative compound 2, N-(2-phenylbenzo[d]thiazol-6-yl) carbonohydrazonoyl dicyanide, reference compound] | – | 65% | – | – | 5.55 | – | – | – | – |
